Experimental data as given in US20060258644A1, “Pyrrolobenzodiazepines and heteroaryl, aryl and cycloalkylamino ketone derivatives as follicle stimulating hormone receptor (FSH-R) antagonists” (Wyeth, priority 2005, published 2006).
Where a name gives a salt, the structure may show the parent alone. Read-outs that look alike come from different tables or passages of the source.

Experiments:
human FSH receptor = molecular target: T1, human FSH receptor (Homo sapiens, UniProt P23945); experiment: FSH receptor-dependent CRE-luciferase reporter gene assay (CHO FSH-R 6CRE-Luc cells); assay type: cell-based; conditions: for inhibition at 30 µM: test concentration in μM in parentheses (30 μM), % inhibition of the response to the EC50 of FSH
T1 construct: host or cells: CHO-K1 (CHO FSH-R 6CRE-Luc, 1D7 cells)
T1 sequence (P23945 18-695): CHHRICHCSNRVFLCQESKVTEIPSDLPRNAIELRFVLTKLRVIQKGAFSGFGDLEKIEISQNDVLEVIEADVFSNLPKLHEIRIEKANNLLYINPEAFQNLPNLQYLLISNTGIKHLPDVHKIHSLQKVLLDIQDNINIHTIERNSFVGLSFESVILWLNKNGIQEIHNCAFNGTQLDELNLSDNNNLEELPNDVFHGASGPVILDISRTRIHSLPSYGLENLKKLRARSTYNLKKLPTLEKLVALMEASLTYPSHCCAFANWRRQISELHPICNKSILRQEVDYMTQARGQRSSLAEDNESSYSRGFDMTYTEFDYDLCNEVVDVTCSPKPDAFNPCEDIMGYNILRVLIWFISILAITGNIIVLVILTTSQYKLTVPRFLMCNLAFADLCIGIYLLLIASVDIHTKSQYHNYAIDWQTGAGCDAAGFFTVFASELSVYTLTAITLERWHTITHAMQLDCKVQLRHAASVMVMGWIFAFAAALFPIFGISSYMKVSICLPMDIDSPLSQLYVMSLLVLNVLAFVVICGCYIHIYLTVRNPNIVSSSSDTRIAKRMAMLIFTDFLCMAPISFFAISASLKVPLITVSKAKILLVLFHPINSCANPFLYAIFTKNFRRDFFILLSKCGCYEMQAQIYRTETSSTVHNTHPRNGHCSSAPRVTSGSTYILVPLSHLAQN
Excerpt: Follicle-Stimulating Hormone Receptor-Dependent CRE-Luciferase Reporter Gene Assay for the Identification of Follicle-Stimulating Hormone (FSH) Antagonists
This procedure was used to identify and determine the relative potencies of human FSH receptor antagonists using a Chinese hamster ovarian cell line that stably produces the human FSH receptor and a luciferase reporter gene regulated by cAMP response elements.
The compounds were subsequently diluted in DMSO to working dilutions of 1 and 20 or 30 mM for 2-dose testing format and 1 μM-10 mM for dose-response format. The DMSO dilutions were diluted 500-fold in sterile growth medium [D-MEM/F-12 (GIBCO/BRL; Grand Island N.Y.) containing 15 mM HEPES, 2 mM 1-glutamine, pyridoxine hydrochloride, phenol red and 5% FetalClone II (HyClone Laboratories, Inc; Logan, Utah), 0.2% DMSO, 100 units penicillin G/ml, and 100 μg streptomycin sulfate/ml (GIBCO/BRL)]. The concentration of the vehicle in each of the compound dilutions was the same. • Positive Controls: Purified human FSH (>98%) was purchased from Cortex Biochem, Inc. (San Leandro, Calif.) and WAY-162002 (an FSH-R thiazolidinone antagonist) was obtained from the Wyeth Research compound repository. Preparation of Cells
The CHO FSH-R 6CRE-Luc cells (1D7 cells) were obtained from Affymax (Palo Alto, Calif.). These Chinese hamster ovary cells (CHO—K1) were genetically engineered to stably express the recombinant human FSH receptor gene and a luciferase reporter gene under the regulation of 6 copies of a cAMP response element. The cells were plated one day prior to treatment into 96-well white opaque plates at a density of 50,000 cells/100 μl/well in growth medium. On the day of treatment, the growth medium was removed from the wells by aspiration and 50 μl of fresh growth medium was added to each well. The cells were incubated at 37° C. in a humidified incubator with 5% CO2/95% air.
The treated cells were incubated for 4 hours at 37° C. in a humidified incubator with 5% CO2/95% air. At the end of-the incubation period, luciferase activity was measured by chemiluminescence using a commercially available kit (LucScreen, Tropix, Inc., Bedford, Mass.) according to the manufacturer's specifications, except that Buffer 1 and Buffer 2 were mixed together in equal proportion prior to the addition of 100 μl of the combined reagents to each well. Chemiluminescence was detected using a luminometer (EG & G Berthold Microlumat LB 96 P, Wallac, Gaithersburg, Md.) with chemiluminescence measured for 1 sec/well. Background luminescence was measured for each well prior to the addition of the LucScreen reagent.
In the 96-well 2-dose format, each compound was tested in duplicate at each dose. […] One plate was used to test a maximum of 22 compounds.
The EC50 of purified human FSH alone was tested in triplicate with each test compound. The doses chosen to test each compound were extrapolated from the initial 2-dose screening process. Along with the test compounds, purified human FSH was also tested in a dose response (0.03, 0.1, 0.3, 1, 3, 10, and 30 ng/ml) for a positive control and quality control. One plate was used for 3 test compounds and the FSH positive control.
Luciferase activity is expressed as relative light units/sec/well. Luciferase activity in antagonist was compared to the appropriate negative and positive controls. For 2-dose testing, results are reported as luciferase activity and are expressed as % inhibition of the response obtained from the EC50 of FSH. For dose-response testing, results are reported as IC50 values. Data were analyzed statistically by one-way analysis of variance with appropriate weighting and transformation and relevant paired test as determined by Biometrics (Wyeth Research, Princeton, N.J.). IC50 values were calculated using the Stat/Excel program developed by Biometrics with appropriate weighting and transformation.

[1] = dose-response in presence of EC50 of purified human FSH, read-out: CRE IC50

Compound | IC50 (human FSH receptor; [1]) | melting point | inhibition at 30 µM (human FSH receptor) | IC50 (human FSH receptor; positive control, in the presence of EC50 of purified human FSH, read-out: IC50 in CRE-luciferase assay)
CC(C)(C)c1ccc(C(=O)c2ccc3n2Cc2ccccc2N(C(=O)COc2ccc(Cl)cc2)C3)cc1 [Example 12, (4-tert-Butylphenyl){10-[(4-chlorophenoxy)acetyl]-10,11-dihydro-5H-pyrrolo[2,1-c][1,4]benzodiazepin-3-yl}methanone] | > 30 µM | 171 °C |  | 
Cc1ccccc1-c1ccc(C(=O)N2Cc3ccc(C(=O)CNc4cccnc4)n3Cc3ccccc32)cc1C [Example 1, 1-{10-[(2,2′-Dimethyl-1,1′-biphenyl-4-yl)carbonyl]-10,11-dihydro-5H-pyrrolo[2,1-c][1,4]benzodiazepin-3-yl}-2-(pyridin-3-ylamino)ethanone formic acid salt] |  |  | 4% | 
Cc1cc(Cl)ccc1OCC(=O)N1Cc2ccc(C(=O)c3ccc(C(C)(C)C)cc3)n2Cc2ccccc21 [Example 8, (4-Tert-butylphenyl){10-[(4-chloro-2-methylphenoxy)acetyl]-10,11-dihydro-5H-pyrrolo[2,1-c][1,4]benzodiazepin-3-yl}methanone] | > 30 µM | 168 °C |  | 
Cc1ccccc1-c1ccc(C(=O)N2Cc3ccc(C(=O)CCc4cccnc4)n3Cc3ccccc32)cc1 [Example 15, 1-{10-[(2′-Methyl-1,1′-biphenyl-4-yl)carbonyl]-10,11-dihydro-5H-pyrrolo[2,1-c][1,4]benzodiazepin-3-yl}-3-pyridin-3-ylpropan-1-one] | 12.1 µM | 135 to 136 °C |  | 
NC(=O)c1cccc(N2C(=O)[C@@H](CC(=O)NCCc3c[nH]c4ccccc34)S[C@H]2c2ccc(C#Cc3ccccc3)s2)c1 (relative stereo) [3-[(2S*,5R*)-5-{[2-(1H-Indol-3-yl)-ethylcarbamoyl]-methyl}-4-oxo-2-(5-phenylethynyl-thiophen-2-yl)-thiazolidin-3-yl]-benzamide, reference compound] |  |  |  | 2 µM
Cc1cc(Cl)ccc1OCC(=O)N1Cc2ccc(C(=O)CCc3ccccc3)n2Cc2ccccc21 [Example 5, 1-{10-[(4-Chloro-2-methylphenoxy)acetyl]-10,11-dihydro-5H-pyrrolo[2,1-c][1,4]benzodiazepin-3-yl}-3-phenylpropan-1-one] | > 30 µM | 130 to 134 °C |  | 
Cc1cc(Cl)ccc1OCC(=O)N1Cc2ccc(C(=O)c3cccc4ccccc34)n2Cc2ccccc21 [Example 6, {10-[(4-Chloro-2-methylphenoxy)acetyl]-10,11-dihydro-5H-pyrrolo[2,1-c][1,4]benzodiazepin-3-yl}(1-naphthyl)methanone] | > 30 µM | 130 to 134 °C |  | 
Cc1cc(Cl)ccc1OCC(=O)N1Cc2ccc(C(=O)c3ccc(Cl)cc3)n2Cc2ccccc21 [Example 4, {10-[(4-Chloro-2-methylphenoxy)acetyl]-10,11-dihydro-5H-pyrrolo[2,1-c][1,4]benzodiazepin-3-yl}(4-chlorophenyl)methanone] |  | 175 to 176 °C | 22% | 
O=C(CCc1cccnc1)c1ccc2n1Cc1ccccc1N(C(=O)c1ccc(-c3ccccc3)cc1)C2 [Example 2, 1-[10-(1,1′-Biphenyl-4-ylcarbonyl)-10,11-dihydro-5H-pyrrolo[2,1-c][1,4]benzodiazepin-3-yl]-3-pyridin-3-ylpropan-1-one formic acid salt] | 10.7 µM |  |  | 

Second part, the molecule after the results:

IC50 (human FSH receptor; [1]) | melting point | inhibition at 30 µM (human FSH receptor) | IC50 (human FSH receptor; positive control, in the presence of EC50 of purified human FSH, read-out: IC50 in CRE-luciferase assay) | Compound
> 30 µM |  |  |  | Cc1cc(Cl)ccc1OCC(=O)N1Cc2ccc(C(=O)c3ccccc3-c3ccccc3)n2Cc2ccccc21 [Example 9, 1,1′-Biphenyl-2-yl{10-[(4-chloro-2-methylphenoxy)acetyl]-10,11-dihydro-5H-pyrrolo[2,1-c][1,4]benzodiazepin-3-yl}methanone]
> 30 µM |  |  |  | O=C(c1ccccc1-c1ccccc1)c1ccc2n1Cc1ccccc1N(C(=O)COc1ccc(Cl)cc1)C2 [Example 14, 1,1′-Biphenyl-2-yl{10-[(4-chlorophenoxy)acetyl]-10,11-dihydro-5H-pyrrolo[2,1-c][1,4]benzodiazepin-3-yl}methanone]
 | 126 to 128 °C | 8% |  | O=C(CCc1ccccc1)c1ccc2n1Cc1ccccc1N(C(=O)COc1ccc(Cl)cc1)C2 [Example 11, 1-{10-[(4-Chlorophenoxy)acetyl]-10,11-dihydro-5H-pyrrolo[2,1-c][1,4]benzodiazepin-3-yl}-3-phenylpropan-1-one]
> 30 µM | 102 to 105 °C |  |  | Cc1cc(Cl)ccc1OCC(=O)N1Cc2ccc(C(=O)c3ccc(-c4ccccc4)cc3)n2Cc2ccccc21 [Example 7, 1,1′-Biphenyl-4-yl{10-[(4-chloro-2-methylphenoxy)acetyl]-10,11-dihydro-5H-pyrrolo[2,1-c][1,4]benzodiazepin-3-yl}methanone]
> 30 µM | 195 °C |  |  | O=C(c1ccc(Cl)cc1)c1ccc2n1Cc1ccccc1N(C(=O)COc1ccc(Cl)cc1)C2 [Example 10, {10-[(4-Chlorophenoxy)acetyl]-10,11-dihydro-5H-pyrrolo[2,1-c][1,4]benzodiazepin-3-yl}(4-chlorophenyl)methanone]
 | 155 to 157 °C | 14% |  | O=C(c1ccc(-c2ccccc2)cc1)c1ccc2n1Cc1ccccc1N(C(=O)COc1ccc(Cl)cc1)C2 [Example 13, 1,1′-Biphenyl-4-yl{10-[(4-chlorophenoxy)acetyl]-10,11-dihydro-5H-pyrrolo[2,1-c][1,4]benzodiazepin-3-yl}methanone]
